Results: patent US8791132B2, “Compounds and methods for treatment of hypertension” (Medivation Technologies, Inc., priority 2011, dated 2014)
Read-outs that look alike come from different tables or passages of the source.

Columns and labels:
[1] = molecular target: T1, human recombinant adrenergic α2B receptor (Homo sapiens, UniProt P18089); test: Radioligand binding, adrenergic α2B ([3H]Rauwolscine); settings: for Percentage inhibition of ligand binding, Adrenergic α2B / Percentage inhibition of ligand binding, Adrenergic α2B (0.03 μM): 0.03 µM; for Percentage inhibition of ligand binding, Adrenergic α2B (0.03 μM): repeat datapoints each shown
T1 construct: expressed in transfected cells; host or cells: CHO-K1
T1 sequence (P18089 1-450): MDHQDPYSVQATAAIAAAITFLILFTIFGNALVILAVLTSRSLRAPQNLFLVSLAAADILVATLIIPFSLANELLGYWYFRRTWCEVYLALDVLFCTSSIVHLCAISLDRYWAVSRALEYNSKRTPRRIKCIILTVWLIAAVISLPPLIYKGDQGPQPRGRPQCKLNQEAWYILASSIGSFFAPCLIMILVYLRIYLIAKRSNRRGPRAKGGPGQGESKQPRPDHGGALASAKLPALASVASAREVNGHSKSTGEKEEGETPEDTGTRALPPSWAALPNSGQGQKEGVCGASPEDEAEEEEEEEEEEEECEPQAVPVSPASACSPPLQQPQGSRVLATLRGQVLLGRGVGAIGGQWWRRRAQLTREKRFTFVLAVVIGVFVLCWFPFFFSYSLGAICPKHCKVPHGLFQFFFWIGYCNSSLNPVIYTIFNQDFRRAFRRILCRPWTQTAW
In short: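 Values are percent inhibition of specific radioligand binding. The receptor, expressed in CHO-K1 cells, was exposed to 2.5 nM [3H]Rauwolscine at 25° C for 60 min, with 10 μM Prazosin marking non-specific binding.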

[2] = molecular target: T2, human recombinant adrenergic α2A receptor (Homo sapiens, UniProt P08913); test: Radioligand binding, adrenergic α2A ([3H]MK-912); settings: for Percentage inhibition of ligand binding, Adrenergic α2A / Percentage inhibition of ligand binding, Adrenergic α2A (0.1 μM): 0.1 µM; for Percentage inhibition of ligand binding, Adrenergic α2A (0.1 μM): repeat datapoints each shown; for inhibition at 0.1 µM: read-out: Percentage inhibition of ligand binding, Adrenergic α2A
T2 construct: expressed in transfected cells; host or cells: insect Sf9 cells
T2 sequence (P08913 1-465): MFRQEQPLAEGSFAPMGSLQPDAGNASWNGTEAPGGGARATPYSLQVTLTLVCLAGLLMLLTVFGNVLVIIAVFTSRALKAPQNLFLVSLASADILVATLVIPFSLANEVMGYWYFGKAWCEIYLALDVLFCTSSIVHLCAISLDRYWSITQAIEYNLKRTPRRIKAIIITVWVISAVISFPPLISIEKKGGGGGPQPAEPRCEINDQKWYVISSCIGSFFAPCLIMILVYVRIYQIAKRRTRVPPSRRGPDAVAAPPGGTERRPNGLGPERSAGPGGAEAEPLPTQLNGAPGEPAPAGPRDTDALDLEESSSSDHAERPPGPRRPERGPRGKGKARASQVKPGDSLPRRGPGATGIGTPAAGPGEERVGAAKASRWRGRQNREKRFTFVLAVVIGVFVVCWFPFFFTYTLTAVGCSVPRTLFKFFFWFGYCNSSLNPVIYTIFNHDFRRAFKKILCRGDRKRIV
In short: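 Sf9-expressed receptor was incubated with compound for 60 min at 25 °C in modified Tris-HCl buffer, pH 7.4. Nonspecific binding was taken as that remaining with 10 μM WB-4101.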

[3] = molecular target: T3, rat adrenergic α1B receptor (Rattus norvegicus, UniProt P15823); test: Radioligand binding, adrenergic α1B ([3H]Prazosin); settings: for Percentage inhibition of ligand binding, Adrenergic α1B / Percentage inhibition of ligand binding, Adrenergic α1B (0.1 μM): 0.1 µM; for Percentage inhibition of ligand binding, Adrenergic α1B (0.1 μM): repeat datapoints each shown
T3 construct: rat adrenergic α1B receptor obtained from Wistar Rat liver; from tissue; host or cells: Wistar rat liver
T3 sequence (P15823 1-515): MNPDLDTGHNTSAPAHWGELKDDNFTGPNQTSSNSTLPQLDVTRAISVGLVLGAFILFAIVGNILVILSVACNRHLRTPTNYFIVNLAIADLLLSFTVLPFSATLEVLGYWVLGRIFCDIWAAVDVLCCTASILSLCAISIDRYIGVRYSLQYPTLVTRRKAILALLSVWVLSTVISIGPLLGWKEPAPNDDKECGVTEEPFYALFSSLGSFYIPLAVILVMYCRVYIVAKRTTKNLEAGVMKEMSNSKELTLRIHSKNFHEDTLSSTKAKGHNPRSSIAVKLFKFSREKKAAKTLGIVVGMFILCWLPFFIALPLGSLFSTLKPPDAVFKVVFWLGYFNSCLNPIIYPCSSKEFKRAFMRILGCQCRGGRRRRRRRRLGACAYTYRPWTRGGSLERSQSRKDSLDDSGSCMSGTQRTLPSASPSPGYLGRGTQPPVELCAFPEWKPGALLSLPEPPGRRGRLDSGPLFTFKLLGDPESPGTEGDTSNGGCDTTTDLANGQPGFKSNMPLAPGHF
In short: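 Incubation ran 60 min at 25 °C in Tris-HCl buffer (50 mM, pH 7.4, 0.5 mM EDTA) with Wistar rat liver α1B receptor. 10 μM phentolamine set non-specific binding.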

[4] = compound at 0.03 μM, [3H]Rauwolscine, repeat assays, each datapoint shown
[5] = compound at 0.1 μM, [3H]MK-912, repeat assays, each datapoint shown
[6] = compound at 0.1 μM, [3H]Prazosin, repeat assays, each datapoint shown
[7] = compound at 0.03 μM, [3H]Rauwolscine
[8] = compound at 0.1 μM, [3H]Prazosin

SMILES: Cc1ccc2c(c1)c1c(n2CC(O)c2cccnc2)CCNC1 (stereo not drawn) [compound 9, 2-(8-methyl-1,2,3,4-tetrahydro-pyrido[4,3-b]indol-5-yl)-1-pyridin-3-yl-ethanol]
- Percentage inhibition of ligand binding, Adrenergic α2B [1, 4]: 36%
- Percentage inhibition of ligand binding, Adrenergic α2A [2, 5]: −4%
- Percentage inhibition of ligand binding, Adrenergic α1B [3, 6]: 5%

SMILES: CC(=O)c1ccc2c(c1)c1c(n2CC(O)c2ccncc2)CCN(C)C1 (single isomer, unassigned) [49b, 1-(2,3,4,5-tetrahydro-5-(2-hydroxy-2-(pyridin-4-yl)ethyl)-2-methyl-1H-pyrido[4,3-b]indol-8-yl)ethanone]
- Percentage inhibition of ligand binding, Adrenergic α2B [1, 4]: 19%
- Percentage inhibition of ligand binding, Adrenergic α2A [2, 5]: 6%
- Percentage inhibition of ligand binding, Adrenergic α1B [3, 6]: 5%

SMILES: Cc1ccc2c(c1)c1c(n2CC(C)(OC(=O)C(C)C)c2cccnc2)CCN(C)C1 (single isomer, unassigned) [146b]
- Percentage inhibition of ligand binding, Adrenergic α2B (0.03 μM) [1, 7]: 63%
- Percentage inhibition of ligand binding, Adrenergic α2A (0.1 μM) ([2]; compound at 0.1 μM, [3H]MK-912): 21%
- Percentage inhibition of ligand binding, Adrenergic α1B (0.1 μM) [3, 8]: 11%

SMILES: CC1Cc2c(c3cc(Cl)ccc3n2CC(C)(O)c2cccnc2)CN1C (single isomer, unassigned) [II-147b, 1-(8-chloro-2,3-dimethyl-3,4-dihydro-1H-pyrido[4,3-b]indol-5(2H)-yl)-2-(pyridin-3-yl)propan-2-ol]
- Percentage inhibition of ligand binding, Adrenergic α2B (0.03 μM) [1, 7]: 66%
- Percentage inhibition of ligand binding, Adrenergic α2A (0.1 μM) ([2]; compound at 0.1 μM, [3H]MK-912): 15%
- Percentage inhibition of ligand binding, Adrenergic α1B (0.1 μM) [3, 8]: 20%

SMILES: OC(Cn1c2c(c3cc(Cl)cnc31)CN1CCCC1C2)c1ccncc1 (stereo not drawn) [II-86]
- inhibition at 0.03 µM ([1]; 0.03 μM compound, read-out: Percentage inhibition of ligand binding, Adrenergic α2B): 35%
- inhibition at 0.1 µM ([2]; 0.1 μM compound): 27%
- inhibition at 0.1 µM ([3]; 0.1 μM compound, read-out: Percentage inhibition of ligand binding, Adrenergic α1B): 44%

SMILES: Cc1ccc2c(c1)c1c(n2CC(c2ccc(F)cc2)N(C)C)CCN(C)C1 (single isomer, unassigned) [II-14a, 2-(2,8-dimethyl-3,4-dihydro-1H-pyrido[4,3-b]indol-5(2H)-yl)-1-(4-fluorophenyl)-N,N-dimethylethanamine]
- Percentage inhibition of ligand binding, Adrenergic α2B ([1]; 0.03 μM compound): 88%
- inhibition at 0.1 µM ([2]; 0.1 μM compound): 34%
- Percentage inhibition of ligand binding, Adrenergic α1B ([3]; 0.1 μM compound): 30%

SMILES: CC(O)(Cn1c2c(c3cc(Cl)ccc31)CNCC2)c1ccncn1 (single isomer, unassigned) [42b, 1-(8-chloro-1,2,3,4-tetrahydro-pyrido[4,3-b]indol-5-yl)-2-pyrimidin-4-yl-propan-2-ol]
- Percentage inhibition of ligand binding, Adrenergic α2B [1, 4]: 34%
- Percentage inhibition of ligand binding, Adrenergic α2A [2, 5]: 12%
- Percentage inhibition of ligand binding, Adrenergic α1B [3, 6]: 19%

SMILES: Cc1ccc2c(c1)c1c(n2CC(O)c2ccncc2)CN(C)CC1 (single isomer, unassigned) [8b]
- inhibition at 0.03 µM ([1]; compound at 0.03 μM, [3H]Rauwolscine, repeat assays, each datapoint shown, read-out: Percentage inhibition of ligand binding, Adrenergic α2B): 49%
- inhibition at 0.1 µM ([1]; compound at 0.1 μM, [3H]Rauwolscine, repeat assays, each datapoint shown, read-out: Percentage inhibition of ligand binding, Adrenergic α2B): 78%
- Ki ([1]; read-out: Ki α2B): 11.7 nM
- Ki [2]: 2100 nM
- Percentage inhibition of ligand binding, Adrenergic α2A [2, 5]: 12%
- inhibition at 0.1 µM [2, 5]: 8%
- inhibition at 0.03 µM ([3]; compound at 0.03 μM, [3H]Prazosin, repeat assays, each datapoint shown, read-out: Percentage inhibition of ligand binding, Adrenergic α1B): 24%
- Percentage inhibition of ligand binding, Adrenergic α1B [3, 6]: 63%
- inhibition at 0.1 µM ([3]; compound at 0.1 μM, [3H]Prazosin, repeat assays, each datapoint shown, read-out: Percentage inhibition of ligand binding, Adrenergic α1B): 61%

SMILES: Cc1cnc2c(c1)c1c(n2CC(C)(O)c2ccc(C(F)(F)F)nc2)CCN(C)C1 (single isomer, unassigned) [II-108b]
- Percentage inhibition of ligand binding, Adrenergic α2B (0.03 μM) [1, 7]: 11%
- Percentage inhibition of ligand binding, Adrenergic α2A (0.1 μM) ([2]; compound at 0.1 μM, [3H]MK-912): −6%
- Percentage inhibition of ligand binding, Adrenergic α1B (0.1 μM) [3, 8]: −2%

SMILES: Cc1cnc2c(c1)c1c(n2CC(O)c2ccncc2)CCN2CCCC12 (single isomer, unassigned) [IV-209a, 2-(9-Methyl-1,2,3,4,5,10c-hexahydro-3a,6,7-triaza-cyclopenta[c]fluoren-6-yl)-1-pyridin-4-yl-ethanol]
- Percentage inhibition of ligand binding, Adrenergic α2B (0.03 μM) [1, 7]: 72%
- Percentage inhibition of ligand binding, Adrenergic α2A (0.1 μM) ([2]; compound at 0.1 μM, [3H]MK-912): 6%
- Percentage inhibition of ligand binding, Adrenergic α1B (0.1 μM) [3, 8]: 89%

SMILES: Cc1ccc2c(c1)c1c(n2CC(O)c2ccncc2)CC2CCCN2C1 (single isomer, unassigned) [76a]
- Percentage inhibition of ligand binding, Adrenergic α2B [1, 4]: 92%
- Percentage inhibition of ligand binding, Adrenergic α2A [2, 5]: 21%
- Percentage inhibition of ligand binding, Adrenergic α1B [3, 6]: 78%

SMILES: Cc1ccc2c(c1)c1c(n2CC(C)(OCC(=O)O)c2cccnc2)CCN(C)C1 (single isomer, unassigned) [V-14a, 2-((1-(2,8-dimethyl-3,4-dihydro-1H-pyrido[4,3-b]indol-5(2H)-yl)-2-(pyridin-3-yl)propan-2-yl)oxy)acetic acid]
- Percentage inhibition of ligand binding, Adrenergic α2B (0.03 μM) [1, 7]: 7%
- Percentage inhibition of ligand binding, Adrenergic α2A (0.1 μM) ([2]; compound at 0.1 μM, [3H]MK-912): 18%
- Percentage inhibition of ligand binding, Adrenergic α1B (0.1 μM) [3, 8]: 0%

SMILES: Cc1ccc2c(c1)c1c(n2CC(C)(c2cnccn2)N(C)C)CCN2CCCC12 (single isomer, unassigned) [II-6b, dimethyl-[1-methyl-2-(9-methyl-1,2,3,4,5,10c-hexahydro-3a,6-diaza-cyclopenta[c]fluoren-6-yl)-1-pyrazin-2-yl-ethyl]-amine]
- Percentage inhibition of ligand binding, Adrenergic α2B ([1]; 0.03 μM compound): 102%
- Percentage inhibition of ligand binding, Adrenergic α2A ([2]; 0.1 μM compound): 81%
- Percentage inhibition of ligand binding, Adrenergic α1B ([3]; 0.1 μM compound): 91%

SMILES: Cc1cc(C)c2c(c1)c1c(n2CC(O)c2ccncc2)CCN2CCCC12 (single isomer, unassigned) [II-125d, 2-(8,10-dimethyl-2,3,5,6-tetrahydro-1H-indolizino[7,8-b]indol-7(11cH)-yl)-1-(pyridin-4-yl)ethanol]
- Percentage inhibition of ligand binding, Adrenergic α2B (0.03 μM) [1, 7]: 88%
- Percentage inhibition of ligand binding, Adrenergic α2A (0.1 μM) ([2]; compound at 0.1 μM, [3H]MK-912): 71%
- Percentage inhibition of ligand binding, Adrenergic α1B (0.1 μM) [3, 8]: 64%
